According to PubChem BioAssay AID2060484 (Molecular Pharmacology Branch, DTP, NCI, 2025):
pIC50: −log10 of the molar value.

System: SUM149PT spheroids with HUVEC/MSC, viability
Test: Anticancer human tumor SUM149PT cell line growth inhibition [GQUAD];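 note: spheroids exposed to drugs for seven days before readout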;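 for viability, T/C: percent viability relative to DMSO vehicle control taken as 100%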
Settings: for pIC50: curve of first compound; for viability, T/C: stronger effect = lower value
How it was run: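 Tumor cells were grown as complex spheroids with HUVEC endothelial cells and mesenchymal stem cells as stroma. G-quadruplex stabilizers were combined with targeted agents over half-log dilutions from near the clinical Cmax, or from 10 microM.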

[1] = second compound 0.0316 µM, first compound 0.0316 µM
[2] = second compound 0.0316 µM, first compound 0.316 µM
[3] = second compound 0.1 µM, first compound 0.0316 µM
[4] = second compound 0.1 µM, first compound 0.316 µM
[5] = second compound 0.316 µM, first compound 0.0316 µM
[6] = second compound 0.316 µM, first compound 0.316 µM
[7] = second compound 1 µM, first compound 0.0316 µM
[8] = second compound 1 µM, first compound 0.316 µM
[9] = second compound 3.16 µM, first compound 0.0316 µM
[10] = second compound 3.16 µM, first compound 0.316 µM
[11] = second compound 10 µM, first compound 0.0316 µM
[12] = second compound 10 µM, first compound 0.316 µM

Cc1[nH]c2ccccc2c1CCNCc1ccc(/C=C/C(=O)NO)cc1 + Cc1cnc(CNC(=O)c2c(=O)c3ccc(N4CCCN(C)CC4)nc3n3c2sc2ccccc23)cn1
pIC50 (second compound 0.0316 µM): 6.88 | pIC50 (second compound 0.1 µM): 7.00 | pIC50 (second compound 0.316 µM): 7.25 | pIC50 (second compound 1 µM): > 9.00 | pIC50 (second compound 3.16 µM): > 9.00 | pIC50 (second compound 10 µM): > 9.00 | viability, T/C (second compound 0.0316 µM, first compound 0.000999 µM): 106% | viability, T/C (second compound 0.0316 µM, first compound 0.00316 µM): 86.2% | viability, T/C (second compound 0.0316 µM, first compound 0.00999 µM): 90% | viability, T/C [1]: 89.5% | viability, T/C (second compound 0.0316 µM, first compound 0.0999 µM): 56% | viability, T/C [2]: 29.8% | viability, T/C (second compound 0.1 µM, first compound 0.000999 µM): 66.2% | viability, T/C (second compound 0.1 µM, first compound 0.00316 µM): 62.1% | viability, T/C (second compound 0.1 µM, first compound 0.00999 µM): 67.7% | viability, T/C [3]: 65.2% | viability, T/C (second compound 0.1 µM, first compound 0.0999 µM): 50.1% | viability, T/C [4]: 26.9% | viability, T/C (second compound 0.316 µM, first compound 0.000999 µM): 54.2% | viability, T/C (second compound 0.316 µM, first compound 0.00316 µM): 55.2% | viability, T/C (second compound 0.316 µM, first compound 0.00999 µM): 55.3% | viability, T/C [5]: 54.9% | viability, T/C (second compound 0.316 µM, first compound 0.0999 µM): 45.7% | viability, T/C [6]: 25% | viability, T/C (second compound 1 µM, first compound 0.000999 µM): 51.1% | viability, T/C (second compound 1 µM, first compound 0.00316 µM): 43.2% | viability, T/C (second compound 1 µM, first compound 0.00999 µM): 48.5% | viability, T/C [7]: 47.7% | viability, T/C (second compound 1 µM, first compound 0.0999 µM): 46.2% | viability, T/C [8]: 20.2% | viability, T/C (second compound 3.16 µM, first compound 0.000999 µM): 39.1% | viability, T/C (second compound 3.16 µM, first compound 0.00316 µM): 40.3% | viability, T/C (second compound 3.16 µM, first compound 0.00999 µM): 39.1% | viability, T/C [9]: 42.6% | viability, T/C (second compound 3.16 µM, first compound 0.0999 µM): 37.9% | viability, T/C [10]: 17.8% | viability, T/C (second compound 10 µM, first compound 0.000999 µM): 0.24% | viability, T/C (second compound 10 µM, first compound 0.00316 µM): 1.67% | viability, T/C (second compound 10 µM, first compound 0.00999 µM): 9.84% | viability, T/C [11]: 10.1% | viability, T/C (second compound 10 µM, first compound 0.0999 µM): 2.55% | viability, T/C [12]: 2%

O=c1[nH]cc(F)c(=O)[nH]1 + Cc1cnc(CNC(=O)c2c(=O)c3ccc(N4CCCN(C)CC4)nc3n3c2sc2ccccc23)cn1
pIC50 (second compound 0.0316 µM): 5.58 | pIC50 (second compound 0.1 µM): 5.67 | pIC50 (second compound 0.316 µM): 5.82 | pIC50 (second compound 1 µM): > 7.50 | pIC50 (second compound 3.16 µM): > 7.50 | pIC50 (second compound 10 µM): > 7.50 | viability, T/C [1]: 86.5% | viability, T/C (second compound 0.0316 µM, first compound 0.1 µM): 86.4% | viability, T/C [2]: 99.3% | viability, T/C (second compound 0.0316 µM, first compound 1 µM): 75.6% | viability, T/C (second compound 0.0316 µM, first compound 3.16 µM): 46.1% | viability, T/C (second compound 0.0316 µM, first compound 10 µM): 34.8% | viability, T/C [3]: 73.6% | viability, T/C (second compound 0.1 µM, first compound 0.1 µM): 64% | viability, T/C [4]: 82.7% | viability, T/C (second compound 0.1 µM, first compound 1 µM): 67.2% | viability, T/C (second compound 0.1 µM, first compound 3.16 µM): 40.8% | viability, T/C (second compound 0.1 µM, first compound 10 µM): 32% | viability, T/C [5]: 51.1% | viability, T/C (second compound 0.316 µM, first compound 0.1 µM): 61.2% | viability, T/C [6]: 55% | viability, T/C (second compound 0.316 µM, first compound 1 µM): 55.2% | viability, T/C (second compound 0.316 µM, first compound 3.16 µM): 40.5% | viability, T/C (second compound 0.316 µM, first compound 10 µM): 31.2% | viability, T/C [7]: 43.4% | viability, T/C (second compound 1 µM, first compound 0.1 µM): 43.5% | viability, T/C [8]: 51.5% | viability, T/C (second compound 1 µM, first compound 1 µM): 40.9% | viability, T/C (second compound 1 µM, first compound 3.16 µM): 35.8% | viability, T/C (second compound 1 µM, first compound 10 µM): 29.4% | viability, T/C [9]: 38.2% | viability, T/C (second compound 3.16 µM, first compound 0.1 µM): 36.2% | viability, T/C [10]: 38.7% | viability, T/C (second compound 3.16 µM, first compound 1 µM): 36.5% | viability, T/C (second compound 3.16 µM, first compound 3.16 µM): 36% | viability, T/C (second compound 3.16 µM, first compound 10 µM): 30.3% | viability, T/C [11]: 18.6% | viability, T/C (second compound 10 µM, first compound 0.1 µM): 9.86% | viability, T/C [12]: 31.9% | viability, T/C (second compound 10 µM, first compound 1 µM): 31.5% | viability, T/C (second compound 10 µM, first compound 3.16 µM): 11% | viability, T/C (second compound 10 µM, first compound 10 µM): 2.12%
